Data reported in ChEMBL document CHEMBL1201862, “PubChem BioAssay data set” (2004).
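Briefly, cells in 96-well plates were exposed to five compound concentrations for 48 h, and endpoints were estimated by linear interpolation. Abbreviation: GI50, concentration required for 50% inhibition of growth.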 Calls of active or inactive are those of the source. Rule as the data show it: active = GI50 up to about 1.1 µM and inactive = higher.

Columns and labels:
Test in all cases: NCI tumour cell line growth inhibition, 48 h
HL-60 = tested on: HL-60
SNB-75 = tested on: SNB-75
SNB-78 = tested on: SNB-78
DLD-1 = tested on: DLD-1
SR = tested on: SR
RXF 393 = tested on: RXF 393
KM12 = tested on: KM12
HOP-92 = tested on: HOP-92
HOP-18 = tested on: HOP-18
RPMI-8226 = tested on: RPMI-8226
SW-620 = tested on: SW-620
XF498 = tested on: XF498
NCI-H226 = tested on: NCI-H226
TK-10 = tested on: TK-10
UO-31 = tested on: UO-31
M14 = tested on: M14
UACC-257 = tested on: UACC-257
KM-20L2 = tested on: KM-20L2
SN12C = tested on: SN12C
HCT-116 = tested on: HCT-116
EKVX = tested on: EKVX
UACC-62 = tested on: UACC-62
SF-295 = tested on: SF-295
DMS-114 = tested on: DMS-114
HOP-62 = tested on: HOP-62
MOLT-4 = tested on: MOLT-4
HCC 2998 = tested on: HCC 2998
NCI-H23 = tested on: NCI-H23
A549 = tested on: A549
OVCAR-5 = tested on: OVCAR-5
U-251 = tested on: U-251
HT-29 = tested on: HT-29
SF-539 = tested on: SF-539
ACHN = tested on: ACHN
COLO 205 = tested on: COLO 205
CAKI-1 = tested on: CAKI-1
NCI-H460 = tested on: NCI-H460
SK-MEL-28 = tested on: SK-MEL-28
A498 = tested on: A498
OVCAR-3 = tested on: OVCAR-3
LXFL 529 = tested on: LXFL 529
SF-268 = tested on: SF-268
K562 = tested on: K562
NCI-H522 = tested on: NCI-H522
Malme-3M = tested on: Malme-3M
IGROV-1 = tested on: IGROV-1
OVCAR-4 = tested on: OVCAR-4
SK-OV-3 = tested on: SK-OV-3
CCRF-CEM = tested on: CCRF-CEM
DMS-273 = tested on: DMS-273
786-0 = tested on: 786-0
LOX IMVI = tested on: LOX IMVI
OVCAR-8 = tested on: OVCAR-8
M19-MEL = tested on: M19-MEL
SNB-19 = tested on: SNB-19
SK-MEL-5 = tested on: SK-MEL-5
SK-MEL-2 = tested on: SK-MEL-2
MDA-MB-231 = tested on: MDA-MB-231
HCT-15 = tested on: HCT-15
MCF7 = tested on: MCF7
MDA-MB-435 = tested on: MDA-MB-435
Hs-578T = tested on: Hs-578T
BT-549 = tested on: BT-549
DU-145 = tested on: DU-145
T47D = tested on: T47D
NCI/ADR-RES = tested on: NCI/ADR-RES

With N#C/C(=C1\N=NC(N)=C(c2ccc(Cl)cc2)C1=O)c1ccc(Cl)cc1 the GI50 (HL-60) was > 100 µM (inactive), the GI50 (SNB-75) was > 100 µM (inactive) and the GI50 (SNB-78) was > 100 µM (inactive). For the same compound, the GI50 (DLD-1) was > 100 µM (inactive), the GI50 (SR) was > 100 µM (inactive) and the GI50 (RXF 393) was > 100 µM (inactive). The GI50 (KM12) was > 100 µM (inactive), the GI50 (HOP-92) was > 100 µM (inactive) and the GI50 (HOP-18) was > 100 µM (inactive). The GI50 (RPMI-8226) was > 100 µM (inactive), the GI50 (SW-620) was > 100 µM (inactive) and the GI50 (XF498) was > 100 µM (inactive). For the same compound, the GI50 (NCI-H226) was > 100 µM (inactive), the GI50 (TK-10) was > 100 µM (inactive) and the GI50 (UO-31) was > 100 µM (inactive). For the same compound, the GI50 (M14) was > 100 µM (inactive), the GI50 (UACC-257) was > 100 µM (inactive) and the GI50 (KM-20L2) was > 100 µM (inactive). The GI50 (SN12C) was > 100 µM (inactive), the GI50 (HCT-116) was > 100 µM (inactive) and the GI50 (EKVX) was > 100 µM (inactive). The GI50 (UACC-62) was > 100 µM (inactive), the GI50 (SF-295) was > 100 µM (inactive) and the GI50 (DMS-114) was > 100 µM (inactive). For the same compound, the GI50 (HOP-62) was > 100 µM (inactive), the GI50 (MOLT-4) was > 100 µM (inactive) and the GI50 (HCC 2998) was > 100 µM (inactive). For the same compound, the GI50 (NCI-H23) was > 100 µM (inactive), the GI50 (A549) was > 100 µM (inactive) and the GI50 (OVCAR-5) was > 100 µM (inactive). For the same compound, the GI50 (U-251) was > 100 µM (inactive), the GI50 (HT-29) was > 100 µM (inactive) and the GI50 (SF-539) was > 100 µM (inactive). The GI50 (ACHN) was > 100 µM (inactive), the GI50 (COLO 205) was > 100 µM (inactive) and the GI50 (CAKI-1) was > 100 µM (inactive). For the same compound, the GI50 (NCI-H460) was > 100 µM (inactive), the GI50 (SK-MEL-28) was > 100 µM (inactive) and the GI50 (A498) was > 100 µM (inactive). For the same compound, the GI50 (OVCAR-3) was > 100 µM (inactive), the GI50 (LXFL 529) was > 100 µM (inactive) and the GI50 (SF-268) was > 100 µM (inactive). The GI50 (K562) was > 100 µM (inactive), the GI50 (NCI-H522) was > 100 µM (inactive) and the GI50 (Malme-3M) was > 100 µM (inactive). The GI50 (IGROV-1) was > 100 µM (inactive), the GI50 (OVCAR-4) was > 100 µM (inactive) and the GI50 (SK-OV-3) was > 100 µM (inactive). For the same compound, the GI50 (CCRF-CEM) was > 100 µM (inactive), the GI50 (DMS-273) was > 100 µM (inactive) and the GI50 (786-0) was > 100 µM (inactive). For the same compound, the GI50 (LOX IMVI) was > 100 µM (inactive), the GI50 (OVCAR-8) was > 100 µM (inactive) and the GI50 (M19-MEL) was > 100 µM (inactive). The GI50 (SNB-19) was > 100 µM (inactive).

With CCOc1ccc(/C(C=O)=C(\Cl)c2ccc(OC)cc2)cc1 the GI50 (SK-MEL-5) was 41.7 µM (inactive), the GI50 (HL-60) was 14.6 µM (inactive) and the GI50 (SNB-75) was 36.6 µM (inactive). For the same compound, the GI50 (SK-MEL-2) was > 100 µM (inactive), the GI50 (MDA-MB-231) was > 100 µM (inactive) and the GI50 (SNB-78) was > 100 µM (inactive). The GI50 (DLD-1) was > 100 µM (inactive), the GI50 (SR) was 5.16 µM (inactive) and the GI50 (RXF 393) was > 100 µM (inactive). The GI50 (KM12) was 56.6 µM (inactive), the GI50 (HOP-92) was 69.3 µM (inactive) and the GI50 (HOP-18) was 42.3 µM (inactive). For the same compound, the GI50 (RPMI-8226) was 5.73 µM (inactive), the GI50 (SW-620) was > 100 µM (inactive) and the GI50 (XF498) was > 100 µM (inactive). For the same compound, the GI50 (NCI-H226) was > 100 µM (inactive), the GI50 (TK-10) was > 100 µM (inactive) and the GI50 (UO-31) was > 57.1 µM (inactive). The GI50 (M14) was > 73.1 µM (inactive), the GI50 (UACC-257) was 9.35 µM (inactive) and the GI50 (HCT-15) was 28.6 µM. For the same compound, the GI50 (KM-20L2) was > 100 µM (inactive), the GI50 (MCF7) was > 100 µM (inactive) and the GI50 (SN12C) was > 100 µM (inactive). For the same compound, the GI50 (HCT-116) was > 83.8 µM (inactive), the GI50 (MDA-MB-435) was 9.4 µM (inactive) and the GI50 (EKVX) was > 52 µM (inactive). The GI50 (Hs-578T) was 34.4 µM (inactive), the GI50 (UACC-62) was > 51.9 µM (inactive) and the GI50 (SF-295) was > 100 µM (inactive). For the same compound, the GI50 (DMS-114) was 40.5 µM (inactive), the GI50 (HOP-62) was 46.7 µM (inactive) and the GI50 (MOLT-4) was 5.48 µM (inactive). For the same compound, the GI50 (HCC 2998) was 82.6 µM (inactive), the GI50 (NCI-H23) was > 100 µM (inactive) and the GI50 (A549) was 18.2 µM (inactive). The GI50 (OVCAR-5) was > 100 µM (inactive), the GI50 (U-251) was > 57.7 µM (inactive) and the GI50 (HT-29) was > 39.4 µM (inactive). For the same compound, the GI50 (SF-539) was > 100 µM (inactive), the GI50 (ACHN) was > 100 µM (inactive) and the GI50 (COLO 205) was > 51.5 µM (inactive). The GI50 (BT-549) was > 100 µM (inactive), the GI50 (CAKI-1) was > 40 µM (inactive) and the GI50 (DU-145) was > 100 µM (inactive). The GI50 (T47D) was 24.2 µM (inactive), the GI50 (NCI-H460) was > 100 µM (inactive) and the GI50 (SK-MEL-28) was > 100 µM (inactive). For the same compound, the GI50 (A498) was > 100 µM (inactive), the GI50 (OVCAR-3) was > 100 µM (inactive) and the GI50 (LXFL 529) was > 100 µM (inactive). For the same compound, the GI50 (SF-268) was > 100 µM (inactive), the GI50 (K562) was 12.5 µM (inactive) and the GI50 (NCI/ADR-RES) was 77.4 µM (inactive). The GI50 (NCI-H522) was > 27.2 µM (inactive), the GI50 (Malme-3M) was > 70.5 µM (inactive) and the GI50 (IGROV-1) was > 100 µM (inactive). The GI50 (OVCAR-4) was 9.82 µM (inactive), the GI50 (SK-OV-3) was > 100 µM (inactive) and the GI50 (CCRF-CEM) was 5.24 µM (inactive). The GI50 (DMS-273) was > 100 µM (inactive), the GI50 (786-0) was > 100 µM (inactive) and the GI50 (LOX IMVI) was 14.2 µM (inactive). For the same compound, the GI50 (OVCAR-8) was > 100 µM (inactive), the GI50 (M19-MEL) was > 100 µM (inactive) and the GI50 (SNB-19) was > 91.8 µM (inactive).
